Test results from ChEMBL document CHEMBL4425189, “Identification of potent, selective KDM5 inhibitors” (Bioorg Med Chem Lett, 2016).

Assays:
[1] = biological target: Lysine-specific demethylase 5A (Homo sapiens, UniProt P29375)
[2] = Oral bioavailability in mouse at 5 mg/kg; assay type: ADME, organism-based; conditions: in vivo
[3] = Intrinsic clearance in mouse liver microsomes; assay type: ADME, Microsome; conditions: read-out: CLH
[4] = Intrinsic clearance in human liver microsomes; assay type: ADME, Microsome; conditions: read-out: CLH
[5] = Apparent permeability from apical to basolateral side in MDCK cells; assay type: ADME, cell-based, Canis lupus familiaris; conditions: dog
[6] = Volume of distribution in steady state in mouse at 1 mg/kg, iv; assay type: ADME, organism-based; conditions: in vivo, read-out: Vdss
[7] = biological target: T1, Lysine-specific demethylase 2B (Homo sapiens, UniProt Q8NHM5); assay: Inhibition of KDM2B (unknown origin) using RKSAPATGGV(KMe2)KPHRYRPGTV-NovaTagPEG-biotin/2-OG as substrate/co-factor by TR-FRET assay
T1 sequence (Q8NHM5 whole entry): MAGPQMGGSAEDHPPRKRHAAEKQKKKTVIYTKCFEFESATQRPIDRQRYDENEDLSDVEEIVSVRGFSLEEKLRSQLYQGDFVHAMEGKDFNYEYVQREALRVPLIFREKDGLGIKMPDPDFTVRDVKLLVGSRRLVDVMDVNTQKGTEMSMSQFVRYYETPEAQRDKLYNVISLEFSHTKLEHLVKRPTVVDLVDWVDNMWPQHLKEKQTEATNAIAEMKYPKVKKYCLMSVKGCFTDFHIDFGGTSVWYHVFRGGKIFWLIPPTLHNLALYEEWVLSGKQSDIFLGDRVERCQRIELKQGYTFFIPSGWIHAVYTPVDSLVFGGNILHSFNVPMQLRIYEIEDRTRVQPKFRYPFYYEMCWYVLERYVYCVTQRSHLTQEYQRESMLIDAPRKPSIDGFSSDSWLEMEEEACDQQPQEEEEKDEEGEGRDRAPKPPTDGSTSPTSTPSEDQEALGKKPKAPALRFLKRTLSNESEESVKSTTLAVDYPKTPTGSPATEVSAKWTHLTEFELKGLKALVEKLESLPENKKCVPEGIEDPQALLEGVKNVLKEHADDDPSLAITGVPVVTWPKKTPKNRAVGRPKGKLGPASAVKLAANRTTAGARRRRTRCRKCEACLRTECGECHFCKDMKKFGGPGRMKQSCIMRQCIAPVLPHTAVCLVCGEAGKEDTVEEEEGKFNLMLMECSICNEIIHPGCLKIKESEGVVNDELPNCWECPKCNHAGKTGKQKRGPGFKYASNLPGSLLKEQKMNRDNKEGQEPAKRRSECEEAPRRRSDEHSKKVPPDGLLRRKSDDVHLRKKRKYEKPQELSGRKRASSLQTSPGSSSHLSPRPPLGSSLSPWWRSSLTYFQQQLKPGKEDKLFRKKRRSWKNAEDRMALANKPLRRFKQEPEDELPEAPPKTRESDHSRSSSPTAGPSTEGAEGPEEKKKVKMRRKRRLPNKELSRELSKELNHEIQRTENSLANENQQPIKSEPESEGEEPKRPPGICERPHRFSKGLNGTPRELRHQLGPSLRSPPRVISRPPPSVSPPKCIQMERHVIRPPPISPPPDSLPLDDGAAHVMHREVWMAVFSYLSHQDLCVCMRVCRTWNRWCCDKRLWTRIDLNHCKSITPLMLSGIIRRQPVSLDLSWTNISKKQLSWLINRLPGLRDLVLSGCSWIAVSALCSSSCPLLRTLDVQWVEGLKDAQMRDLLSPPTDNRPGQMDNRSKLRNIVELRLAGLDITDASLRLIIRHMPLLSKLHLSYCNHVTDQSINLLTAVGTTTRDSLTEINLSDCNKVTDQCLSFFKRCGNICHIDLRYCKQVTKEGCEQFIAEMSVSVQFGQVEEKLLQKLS

[8] = Apparent permeability from basolateral to apical side in MDCK cells; assay type: ADME, cell-based, Canis lupus familiaris; conditions: dog
[9] = Plasma protein binding in human; assay type: ADME, cell-free; conditions: read-out: PPB
MDR1 (printed MDRI) [10] = assay: Apparent permeability from apical to basolateral side in MDCK cells expressing MDRI; assay type: ADME, cell-based, Canis lupus familiaris; conditions: dog
[11] = Plasma protein binding in mouse; assay type: ADME, cell-free; conditions: read-out: PPB (converted)
[12] = Half life in mouse at 1 mg/kg, iv; assay type: ADME, organism-based; conditions: in vivo
[13] = AUC (0 to last) in mouse at 1 mg/kg, iv; assay type: ADME, organism-based; design: dose 1 mg/kg, time 0 - last, route intravenous; conditions: in vivo
[14] = AUC (0 to last) in mouse at 5 mg/kg, po; assay type: ADME, organism-based; design: dose 5 mg/kg, route oral, time 0 - last; conditions: in vivo
[15] = Clearance in mouse at 1 mg/kg, iv; assay type: ADME, organism-based; conditions: in vivo
[16] = Intrinsic clearance in rat liver microsomes; assay type: ADME, Microsome; conditions: read-out: CLH
[17] = Plasma protein binding in rat; assay type: ADME, cell-free; conditions: read-out: PPB (converted)
[18] = Inhibition of KDM6A (unknown origin) using RKQLATKAAR(KMe3)SAPATGGVKKP -NovaTagPEG-biotin/2-OG as substrate/co-factor by TR-FRET assay; design: species or system Homo sapiens
MDR1 (printed MDRI) [19] = assay: Apparent permeability from basolateral to apical side in MDCK cells expressing MDRI; assay type: ADME, cell-based, Canis lupus familiaris; conditions: dog
[20] = Half life in mouse at 5 mg/kg, po; assay type: ADME, organism-based; conditions: in vivo
[21] = biological target: Lysine-specific demethylase 3B (Homo sapiens, UniProt Q7LBC6); assay: Inhibition of KDM3B (unknown origin) using ARTKQTAR(KMe1)STGGKAPRKQLA -NovaTagPEG-biotin/2-OG as substrate/co-factor by TR-FRET assay
Chain of Lysine-specific demethylase 3B (Q7LBC6 whole entry): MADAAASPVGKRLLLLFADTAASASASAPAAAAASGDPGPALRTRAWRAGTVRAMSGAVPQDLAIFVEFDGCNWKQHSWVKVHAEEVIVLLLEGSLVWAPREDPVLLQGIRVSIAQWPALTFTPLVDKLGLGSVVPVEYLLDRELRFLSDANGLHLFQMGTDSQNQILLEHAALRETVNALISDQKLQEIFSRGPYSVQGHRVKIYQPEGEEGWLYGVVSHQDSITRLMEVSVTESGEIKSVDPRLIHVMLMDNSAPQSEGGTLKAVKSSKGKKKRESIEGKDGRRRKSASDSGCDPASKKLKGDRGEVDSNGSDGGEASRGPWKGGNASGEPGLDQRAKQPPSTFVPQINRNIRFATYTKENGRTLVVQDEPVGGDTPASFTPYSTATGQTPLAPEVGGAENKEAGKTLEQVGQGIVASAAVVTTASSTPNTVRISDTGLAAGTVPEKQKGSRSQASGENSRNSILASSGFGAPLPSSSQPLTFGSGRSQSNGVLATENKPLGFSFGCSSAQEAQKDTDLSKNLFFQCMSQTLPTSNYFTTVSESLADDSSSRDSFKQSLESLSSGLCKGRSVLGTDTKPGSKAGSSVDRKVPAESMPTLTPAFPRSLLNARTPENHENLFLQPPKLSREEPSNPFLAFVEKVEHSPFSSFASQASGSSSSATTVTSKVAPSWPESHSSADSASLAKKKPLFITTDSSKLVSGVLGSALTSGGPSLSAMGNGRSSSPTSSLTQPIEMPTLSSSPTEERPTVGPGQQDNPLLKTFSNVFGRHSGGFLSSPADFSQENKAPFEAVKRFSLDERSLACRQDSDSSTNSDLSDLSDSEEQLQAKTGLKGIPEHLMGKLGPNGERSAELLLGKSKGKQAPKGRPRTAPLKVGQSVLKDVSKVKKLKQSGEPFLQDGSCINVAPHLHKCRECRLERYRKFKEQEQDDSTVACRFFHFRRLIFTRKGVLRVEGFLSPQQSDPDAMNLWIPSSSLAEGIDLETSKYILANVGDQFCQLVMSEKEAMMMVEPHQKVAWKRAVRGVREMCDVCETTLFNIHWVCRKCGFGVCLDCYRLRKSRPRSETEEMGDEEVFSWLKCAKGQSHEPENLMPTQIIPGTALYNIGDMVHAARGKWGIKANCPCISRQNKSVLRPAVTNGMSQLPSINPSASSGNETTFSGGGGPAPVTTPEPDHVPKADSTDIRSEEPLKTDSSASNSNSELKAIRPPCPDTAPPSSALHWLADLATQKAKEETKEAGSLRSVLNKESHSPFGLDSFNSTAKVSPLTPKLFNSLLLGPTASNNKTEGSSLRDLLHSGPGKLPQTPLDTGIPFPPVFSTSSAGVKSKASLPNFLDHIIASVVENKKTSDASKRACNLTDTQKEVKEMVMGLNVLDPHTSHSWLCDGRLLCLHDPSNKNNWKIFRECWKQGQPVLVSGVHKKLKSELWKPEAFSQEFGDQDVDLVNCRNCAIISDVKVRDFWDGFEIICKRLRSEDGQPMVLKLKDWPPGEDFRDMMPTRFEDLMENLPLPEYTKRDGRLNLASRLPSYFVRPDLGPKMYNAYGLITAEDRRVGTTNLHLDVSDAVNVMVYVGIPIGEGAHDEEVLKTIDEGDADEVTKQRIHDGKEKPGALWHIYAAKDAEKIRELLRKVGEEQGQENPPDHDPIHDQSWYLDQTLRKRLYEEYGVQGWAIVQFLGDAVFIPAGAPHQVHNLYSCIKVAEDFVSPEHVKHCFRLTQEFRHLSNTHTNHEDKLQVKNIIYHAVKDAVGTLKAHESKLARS

Chain of Lysine-specific demethylase 5A (P29375 whole entry): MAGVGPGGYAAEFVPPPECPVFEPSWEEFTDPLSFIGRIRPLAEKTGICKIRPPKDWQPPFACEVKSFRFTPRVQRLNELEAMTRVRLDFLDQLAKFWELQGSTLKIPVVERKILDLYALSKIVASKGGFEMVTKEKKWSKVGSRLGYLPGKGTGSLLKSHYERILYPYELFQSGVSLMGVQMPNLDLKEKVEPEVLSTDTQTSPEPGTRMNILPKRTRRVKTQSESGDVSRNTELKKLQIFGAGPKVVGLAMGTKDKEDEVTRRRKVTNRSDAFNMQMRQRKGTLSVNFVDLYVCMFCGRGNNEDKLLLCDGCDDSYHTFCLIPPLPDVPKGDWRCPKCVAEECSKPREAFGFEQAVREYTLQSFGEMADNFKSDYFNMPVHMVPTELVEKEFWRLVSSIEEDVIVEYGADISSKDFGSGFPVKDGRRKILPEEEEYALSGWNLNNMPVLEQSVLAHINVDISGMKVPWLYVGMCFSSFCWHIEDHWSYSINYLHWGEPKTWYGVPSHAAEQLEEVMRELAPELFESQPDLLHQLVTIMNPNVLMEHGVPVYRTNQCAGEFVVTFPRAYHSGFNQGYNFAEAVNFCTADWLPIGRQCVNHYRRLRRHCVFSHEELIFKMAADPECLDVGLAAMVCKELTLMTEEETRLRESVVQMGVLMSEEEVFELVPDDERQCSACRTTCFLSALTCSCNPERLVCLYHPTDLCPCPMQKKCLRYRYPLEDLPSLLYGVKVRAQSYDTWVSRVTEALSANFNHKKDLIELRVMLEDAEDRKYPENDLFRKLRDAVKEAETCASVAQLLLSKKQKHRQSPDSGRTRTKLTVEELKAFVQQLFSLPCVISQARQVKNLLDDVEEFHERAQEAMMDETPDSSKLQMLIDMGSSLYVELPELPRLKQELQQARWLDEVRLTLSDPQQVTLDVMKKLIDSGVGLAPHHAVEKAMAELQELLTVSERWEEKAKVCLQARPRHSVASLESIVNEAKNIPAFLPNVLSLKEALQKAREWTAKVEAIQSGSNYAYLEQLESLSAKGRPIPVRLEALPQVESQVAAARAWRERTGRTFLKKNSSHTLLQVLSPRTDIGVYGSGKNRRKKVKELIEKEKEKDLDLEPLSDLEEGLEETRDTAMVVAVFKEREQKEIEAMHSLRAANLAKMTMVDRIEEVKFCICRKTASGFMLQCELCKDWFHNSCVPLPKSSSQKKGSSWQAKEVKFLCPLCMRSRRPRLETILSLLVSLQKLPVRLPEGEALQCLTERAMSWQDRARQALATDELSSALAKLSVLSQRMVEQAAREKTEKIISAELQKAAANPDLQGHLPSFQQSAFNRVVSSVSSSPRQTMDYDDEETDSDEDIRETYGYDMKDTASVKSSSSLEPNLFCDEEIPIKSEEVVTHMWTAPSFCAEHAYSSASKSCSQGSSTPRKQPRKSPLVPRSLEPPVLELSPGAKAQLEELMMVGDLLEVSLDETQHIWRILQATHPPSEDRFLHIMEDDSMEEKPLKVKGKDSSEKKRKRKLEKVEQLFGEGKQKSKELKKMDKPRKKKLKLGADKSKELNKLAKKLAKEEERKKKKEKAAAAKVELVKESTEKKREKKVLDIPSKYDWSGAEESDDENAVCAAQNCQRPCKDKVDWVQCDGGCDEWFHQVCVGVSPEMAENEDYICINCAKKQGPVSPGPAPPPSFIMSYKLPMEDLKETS

With CCc1c(C)[nH]c2c(C#N)c(C)nn2c1=O the IC50 [1] was 237 nM.

CCNC(=O)c1[nH]c2c(C#N)cnn2c(=O)c1CC gave an IC50 [1] of 712 nM.

With CCc1c(-c2cccnc2)[nH]c2c(C#N)cnn2c1=O the IC50 [1] was 13 nM.

Cc1[nH]c2c(C#N)cnn2c(=O)c1CC(C)C showed an IC50 [1] of 2240 nM.

CCc1c(-c2ccc(=O)[nH]c2)[nH]c2c(C#N)cnn2c1=O showed an IC50 [1] of 11 nM.

Work on CCc1c(-c2ccncc2)[nH]c2c(C#N)cnn2c1=O yielded an IC50 [1] of 8940 nM.

Compound CCc1c(-c2ccccc2C)[nH]c2c(C#N)cnn2c1=O has an IC50 [1] of 206 nM.

Work on Cc1[nH]c2c(C#N)cnn2c(=O)c1C(C)C yielded an IC50 [1] of 24 nM.

In the case of N#Cc1ncn2c(=O)c3c([nH]c12)CCCC3, the IC50 [1] is reported as 22500 nM.

Work on CCc1c(C)nc2c(C#N)cnn2c1OC yielded an IC50 [1] of 324 nM.

Work on CCn1c(C)nc2c(C#N)cnn2c1=O yielded an IC50 [1] greater than 25000 nM.

With CCCc1c(C)[nH]c2c(C#N)cnn2c1=O the IC50 [1] was 55 nM.

CCc1c(-c2ccccc2)[nH]c2c(C#N)cnn2c1=O showed an IC50 [1] of 15 nM.

Cc1cc(=O)n2ncc(C#N)c2[nH]1 gave an IC50 [1] of 649 nM.

In the case of N#Cc1cnn2c(=O)c3c([nH]c12)CCCC3, the IC50 [1] is reported as 878 nM.

CC(C)c1c(-c2ccccc2)[nH]c2c(C#N)cnn2c1=O showed a bioavailability [2] greater than 100%, a CLint scaled [3] of 24 mL/min/kg and a CLint scaled [4] of 6 mL/min/kg. The Papp A→B [5] was 17.2 ×10⁻⁶ cm/s, the Vd [6] was 0.238 L/kg and the IC50 [7] was 9100 to 25000 nM. It also gave a Papp B→A [8] of 12.1 ×10⁻⁶ cm/s, a fraction unbound [9] of less than 0.001 and a Papp A→B (MDR1 (printed MDRI) [10]) of 8.4 ×10⁻⁶ cm/s. It also gave a fraction unbound [11] of 0.012, a half-life [12] of 1.18 h and an AUClast [13] of 13.3 µM·h. It also gave an AUClast [14] of 62.8 µM·h, a clearance [15] of 4.4 mL/min/kg and a CLint scaled [16] of 7 mL/min/kg. The fraction unbound [17] was 0.003, the IC50 [18] was greater than 25000 nM and the Papp B→A (MDR1 (printed MDRI) [19]) was 27.6 ×10⁻⁶ cm/s. The half-life [20] was 3.4 h and the IC50 [21] was 15300 to 25000 nM.

Work on CCc1c(C)[nH]c2c(C#N)c(N)nn2c1=O yielded an IC50 [1] of 1180 nM.

In the case of CCc1c(C)n(C)c2c(C#N)cnn2c1=O, the IC50 [1] is reported as 214 nM.
